Measurements taken from patent publication US10604741B2, “Compositions and methods for enhancing virus replication” (TURNSTONE LIMITED PARTNERSHIP, priority 2013, dated 2020).

Columns and labels:
[1] = system: VSVΔ51 in 786-0 cells; assay type: cell-based, human
[2] = system: VSVΔ51 in 786-0 cells; assay type: cell-based, human; conditions: 24 hours

Molecule: CCN(CC)CCCCNc1ncc2cc(-c3cc(OC)cc(OC)c3)c(NC(=O)NC(C)(C)C)nc2n1 [PD173074]
- effect on FGF2-induced enhancement of virus replication [1]: reduces FGF2-induced enhancement of virus replication

Molecule: FGF2: recombinant human FGF2 protein; amino acid sequence shown in SEQ ID NO: 9
- FGF2-enhancement of virus replication at different MOIs [2]: independent of the MOIs used
